Test results published in US12281363B2, “Methods for detecting antiviral-drug resistant virus” (Secretary of State for Health and Social Care, priority 2018, dated 2025).
Read-outs that look alike come from different tables or passages of the source.

Tested on: HSV-2
Assay: Plaque reduction assay, HSV-2 clinical isolates on Vero cells
Assay type: cell-based
Details: Human alphaherpesvirus 2, Vero
From the text: Viral isolates were used to infect a sub-confluent monolayer of Vero cells at a concentration of 75 or 50 plaque forming units (PFU) per well for HSV-1 and HSV-2, respectively. […] CMC medium typically used to create a semisolid interface and prevents indiscrimate viral spreading. Other materials (e.g. agar) may also be used to create this interface.
Cells were fixed with 10% formalin and stained with crystal violet before enumeration of the plaques (microscopic observation or use of fluorescent antibodies for detection is also suitable). The data obtained from these experiments were then expressed as percent inhibition of viral infectivity relative to the no drug control.
Definitions of phenotypic drug susceptibility classification as sensitive or resistant were as follows: ACV, <3 μM or >40 μM; PCV, <10 μM or >40 μM; CDV, <24 μM or >30 μM; FOS, <250 μM or >400 μM; and ACV, <6.5 μM or >40 μM; PCV, <38 μM or >40 μM; FOS, <250 μM or >400 μM for HSV-1 and HSV-2, respectively. Any IC50 values falling in between these sensitive and resistant cut-offs were reported as intermediate resistance.
The phenotype (i.e. reactivity to a drug) of the virus was characterised by the plaque reduction assay as described above. The present inventors have characterised the resistance-causing phenotype of a large number of TK and DNA pol mutations.

`O=C(O)P(=O)(O)O` [Foscarnet, foscarnet] was tested, and the IC50 (isolate HPG001, HSV-2 TK A125T (373G>A), read-out: Drug susceptibility (IC50 value)) was 236 µM, the IC50 (isolate HPG001, HSV-2 TK A125T (373G>A), read-out: Drug susceptibility Foscarnet (FOS)) was less than 250 µM and the IC50 (isolate HPG001, HSV-2 pol H714R (2141A>G), read-out: Drug susceptibility (IC50 value)) was 236 µM. It also gave an IC50 (isolate HPG001, HSV-2 pol H714R (2141A>G), read-out: Drug susceptibility Foscarnet (FOS)) of less than 250 µM, an IC50 (isolate HPG004, HSV-2 pol M494T (1481T>C), also pol S729N, read-out: Drug susceptibility (IC50 value)) of 349 µM and an IC50 (isolate HPG004, HSV-2 pol M494T (1481T>C), also pol S729N, read-out: Drug susceptibility Foscarnet (FOS)) of 250 to 400 µM. For the same compound, the IC50 (isolate HPG007, HSV-2 pol R628G (1882C>G), read-out: Drug susceptibility (IC50 value)) was 783 µM, the IC50 (isolate HPG007, HSV-2 pol R628G (1882C>G), read-out: Drug susceptibility Foscarnet (FOS)) was greater than 400 µM and the IC50 (isolate HPG017, HSV-2 TK Q186H (558G>T), read-out: Drug susceptibility (IC50 value)) was 118 µM. For the same compound, the IC50 (isolate HPG017, HSV-2 TK Q186H (558G>T), read-out: Drug susceptibility Foscarnet (FOS)) was less than 250 µM, the IC50 (isolate HPG022, HSV-2 TK E213D (639A>C), read-out: Drug susceptibility (IC50 value)) was 82 µM and the IC50 (isolate HPG022, HSV-2 TK E213D (639A>C), read-out: Drug susceptibility Foscarnet (FOS)) was less than 250 µM. It also gave an IC50 (isolate HPG022, HSV-2 pol D174Y (520G>T), read-out: Drug susceptibility (IC50 value)) of 82 µM, an IC50 (isolate HPG022, HSV-2 pol D174Y (520G>T), read-out: Drug susceptibility Foscarnet (FOS)) of less than 250 µM and an IC50 (isolate HPG023, HSV-2 TK Q186H (558G>T), read-out: Drug susceptibility (IC50 value)) of 78 µM. It also gave an IC50 (isolate HPG023, HSV-2 TK Q186H (558G>T), read-out: Drug susceptibility Foscarnet (FOS)) of less than 250 µM, an IC50 (isolate HPG024, HSV-2 TK E213D (639A>C), read-out: Drug susceptibility (IC50 value)) of 88.7 µM and an IC50 (isolate HPG024, HSV-2 TK E213D (639A>C), read-out: Drug susceptibility Foscarnet (FOS)) of less than 250 µM. It also gave an IC50 (isolate HPG028, HSV-2 TK 98stop or A94fs (276delG, 278delG, 279delG, or 280delG), read-out: Drug susceptibility (IC50 value)) of 98.8 µM, an IC50 (isolate HPG028, HSV-2 TK 98stop or A94fs (276delG, 278delG, 279delG, or 280delG), read-out: Drug susceptibility Foscarnet (FOS)) of less than 250 µM and an IC50 (isolate HPG028, HSV-2 pol E776Q (2326G>C), also TK deletion (G) nt 276-280, read-out: Drug susceptibility (IC50 value)) of 98.8 µM. It also gave an IC50 (isolate HPG028, HSV-2 pol E776Q (2326G>C), also TK deletion (G) nt 276-280, read-out: Drug susceptibility Foscarnet (FOS)) of less than 250 µM, an IC50 (isolate HPG028, HSV-2 pol R775C, R775W (2323C>T; 2325C>G), also TK deletion (G) nt 276-280, read-out: Drug susceptibility (IC50 value)) of 98.8 µM and an IC50 (isolate HPG028, HSV-2 pol R775C, R775W (2323C>T; 2325C>G), also TK deletion (G) nt 276-280, read-out: Drug susceptibility Foscarnet (FOS)) of less than 250 µM. It also gave an IC50 (isolate HPG030, HSV-2 TK Q90stop (268C>T), read-out: Drug susceptibility (IC50 value)) of 92.3 µM, an IC50 (isolate HPG030, HSV-2 TK Q90stop (268C>T), read-out: Drug susceptibility Foscarnet (FOS)) of less than 250 µM and an IC50 (isolate HPG030, HSV-2 pol E761K (2281G>A), also TK Q90stop, read-out: Drug susceptibility (IC50 value)) of 92.3 µM. For the same compound, the IC50 (isolate HPG030, HSV-2 pol E761K (2281G>A), also TK Q90stop, read-out: Drug susceptibility Foscarnet (FOS)) was less than 250 µM, the IC50 (isolate HPG034, HSV-2 TK L313S (938A>C), read-out: Drug susceptibility Foscarnet (FOS)) was less than 250 µM and the IC50 (isolate HPG036, HSV-2 TK E84K (250G>A), read-out: Drug susceptibility (IC50 value)) was 78.8 µM. It also gave an IC50 (isolate HPG036, HSV-2 TK E84K (250G>A), read-out: Drug susceptibility Foscarnet (FOS)) of less than 250 µM, an IC50 (isolate HPG038, HSV-2 TK R34C (100C>T), read-out: Drug susceptibility (IC50 value)) of 73.7 µM and an IC50 (isolate HPG038, HSV-2 TK R34C (100C>T), read-out: Drug susceptibility Foscarnet (FOS)) of less than 250 µM. The IC50 (isolate HPG044, HSV-2 TK M86L (256A>C), read-out: Drug susceptibility (IC50 value)) was 73.8 µM, the IC50 (isolate HPG044, HSV-2 TK M86L (256A>C), read-out: Drug susceptibility Foscarnet (FOS)) was less than 250 µM and the IC50 (isolate HPG048, HSV-2 TK Q90stop (268C>T), read-out: Drug susceptibility (IC50 value)) was 56.9 µM. For the same compound, the IC50 (isolate HPG048, HSV-2 TK Q90stop (268C>T), read-out: Drug susceptibility Foscarnet (FOS)) was less than 250 µM, the IC50 (isolate HPG048, HSV-2 pol E761K (2281G>A), also TK Q90stop, read-out: Drug susceptibility (IC50 value)) was 56.9 µM and the IC50 (isolate HPG048, HSV-2 pol E761K (2281G>A), also TK Q90stop, read-out: Drug susceptibility Foscarnet (FOS)) was less than 250 µM. For the same compound, the IC50 (isolate HPG057, HSV-2 TK 98stop or A94fs (276delG, 278delG, 279delG, or 280delG), read-out: Drug susceptibility (IC50 value)) was 98.5 µM, the IC50 (isolate HPG057, HSV-2 TK 98stop or A94fs (276delG, 278delG, 279delG, or 280delG), read-out: Drug susceptibility Foscarnet (FOS)) was less than 250 µM and the IC50 (isolate HPG058, HSV-2 TK 183stop or P154fs (458delC, 459delC, 460delC, or 461delC), read-out: Drug susceptibility (IC50 value)) was 59 µM. The IC50 (isolate HPG058, HSV-2 TK 183stop or P154fs (458delC, 459delC, 460delC, or 461delC), read-out: Drug susceptibility Foscarnet (FOS)) was less than 250 µM, the IC50 (read-out: Drug susceptibility (IC50 value), isolate HPG034, HSV-2 TK L313S (938A>C)) was 73.5 µM and the IC50 (read-out: Drug susceptibility (IC50 value), isolate HPG056, HSV-2 pol M447L (1339A>C)) was 88 µM. It also gave an IC50 (read-out: Drug susceptibility Foscarnet (FOS), isolate HPG056, HSV-2 pol M447L (1339A>C)) of less than 250 µM.
